The supplement of paper PMC4862054

Key:
Conditions in all cases: incubation time: 72 h
CAL-85-1 [1] = test: normalised response (% of control), CellTiter-Glo; higher = more viable cells (100 = DMSO, 0 = benzethonium chloride kill control)
Experimental: (§1)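 DSRT, 72 h incubation, CellTox Green / CellTiter-Glo readout. Signal is normalised to DMSO and benzethonium chloride controls. Value is the normalised response at dose 3.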

MDA-MB-453 [2] = test: as above
Experimental: as §1

HCC1937 [3] = test: as above
Experimental: as §1

BT-474 [4] = test: as above
Experimental: as §1

HCC1599 [5] = test: as above
Experimental: as §1

SK-BR-3 = test: as above
Experimental: as §1

HCC1143 [6] = test: as above
Experimental: as §1

HDQ-P1 [7] = test: as above
Experimental: as §1

BT-549 [8] = test: as above
Experimental: as §1

MFM-223 [9] = test: as above
Experimental: as §1

MDA-MB-468 [10] = test: as above
Experimental: as §1

MDA-MB-436 [11] = test: as above
Experimental: as §1

MCF-10A [12] = test: as above
Experimental: as §1

CAL-148 [13] = test: as above
Experimental: as §1

Hs578T [14] = test: as above
Experimental: as §1

CAL-120 [15] = test: as above
Experimental: as §1

CAL-51 [16] = test: as above
Experimental: as §1

DU-4475 [17] = test: as above
Experimental: as §1

MDA-MB-231 [18] = test: as above
Experimental: as §1

CAL-85-1 [19] = test: normalised response (% of control), CellTox Green; higher = less cell death (100 = DMSO, 0 = benzethonium chloride kill control)
In short: (§2)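 Each value is the plate-normalised signal at one concentration of the series. Breast cancer cell lines (20 µl suspension) were incubated 72 h in 384-well plates with compound at 5 concentrations in 10-fold steps over a compound-specific 10,000-fold range. CellTox Green and then CellTiter-Glo were read, and each plate was scaled to 0.1 % DMSO (100) and a positive kill control (0).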

MDA-MB-453 [20] = test: as above
In short: as §2

HCC1937 [21] = test: as above
In short: as §2

BT-474 [22] = test: as above
In short: as §2

HCC1599 [23] = test: as above
In short: as §2

HCC1143 [24] = test: as above
In short: as §2

HDQ-P1 [25] = test: as above
In short: as §2

BT-549 [26] = test: as above
In short: as §2

MDA-MB-468 [27] = test: as above
In short: as §2

MDA-MB-436 [28] = test: as above
In short: as §2

MCF-10A [29] = test: as above
In short: as §2

CAL-148 [30] = test: as above
In short: as §2

Hs578T [31] = test: as above
In short: as §2

CAL-120 [32] = test: as above
In short: as §2

CAL-51 [33] = test: as above
In short: as §2

DU-4475 [34] = test: as above
In short: as §2

MDA-MB-231 [35] = test: as above
In short: as §2

MFM-223 [36] = test: as above
In short: as §2

SMILES	normalised response (CAL-85-1 [1]) [%]	normalised response (MDA-MB-453 [2]) [%]	normalised response (HCC1937 [3]) [%]	normalised response (BT-474 [4]) [%]	normalised response (HCC1599 [5]) [%]	normalised response (SK-BR-3) [%]	normalised response (HCC1143 [6]) [%]	normalised response (HDQ-P1 [7]) [%]	normalised response (BT-549 [8]) [%]	normalised response (MFM-223 [9]) [%]	normalised response (MDA-MB-468 [10]) [%]	normalised response (MDA-MB-436 [11]) [%]	normalised response (MCF-10A [12]) [%]	normalised response (CAL-148 [13]) [%]	normalised response (Hs578T [14]) [%]	normalised response (CAL-120 [15]) [%]	normalised response (CAL-51 [16]) [%]	normalised response (DU-4475 [17]) [%]	normalised response (MDA-MB-231 [18]) [%]	normalised response (CAL-85-1 [19]) [%]	normalised response (MDA-MB-453 [20]) [%]	normalised response (HCC1937 [21]) [%]	normalised response (BT-474 [22]) [%]	normalised response (HCC1599 [23]) [%]	normalised response (HCC1143 [24]) [%]	normalised response (HDQ-P1 [25]) [%]	normalised response (BT-549 [26]) [%]	normalised response (MDA-MB-468 [27]) [%]	normalised response (MDA-MB-436 [28]) [%]	normalised response (MCF-10A [29]) [%]	normalised response (CAL-148 [30]) [%]	normalised response (Hs578T [31]) [%]	normalised response (CAL-120 [32]) [%]	normalised response (CAL-51 [33]) [%]	normalised response (DU-4475 [34]) [%]	normalised response (MDA-MB-231 [35]) [%]	normalised response (MFM-223 [36]) [%]
Cc1cc2c(F)c(Oc3ncnn4cc(OC[C@@H](C)O)c(C)c34)ccc2[nH]1 [Brivanib] (10 nM)	102	102	101	105	104	115	105	99.5	100	108	105	112	113	108	102	100	106	99.6	111	106	109	82	99.8	104	111	72.3	60.1	91.2	96	89.7	103	88.4	98	108	104	111	
Nc1nc(Cl)nc2c1ncn2[C@@H]1O[C@H](CO)[C@@H](O)[C@@H]1F [Clofarabine] (100 nM)	93.2	105	84.1	82.3	76.2	82.6	96.4	98.5	79.5	104	94.3	90.3	109	96.2	98.6	93.8	76	99.4	83.9	113	106	62.3	104	103	105	100	102		102	99.3	92.7	90.3	107	86	114	106	99.3
CCN(CC)CCOc1ccc(C(=C(Cl)c2ccccc2)c2ccccc2)cc1 [Clomifene] (100 nM)	101	103	101	105	87.8	104	102	99	103	104	94.1	98.5	95.2	109	113	103	102	103	106	106	104	59.1	96.8	98.5	112	97.7	105	91.3		104	96.2	75.9	102	112	100	106	102
NC1(c2ccc(-c3nc4ccn5c(=O)[nH]nc5c4cc3-c3ccccc3)cc2)CCC1 [MK-2206] (10 nM)	99.8	88.5	96.5	102	84.7	93.8	104	95.5	107	104	102	102	110	107	102	102	74.5	102	108	95.4	110	81.7	99	118	110	114	86.6	139	95.6	111		96.1	103	83.6	103	115	104
NC(=O)c1cccc2cn(-c3ccc([C@@H]4CCCNC4)cc3)nc12 [MK-4827] (100 nM)	101	99.4	102	109	90	104	107	101	91.6	107	94.7	95.8	110	112	95.1	105	90.9	99.8	106	102	91.6	111	88.2	115	110	78		136		84.8	104	116	102	89.4	101	107	82.5
O=C(c1cc(Cc2n[nH]c(=O)c3ccccc23)ccc1F)N1CCN(C(=O)C2CC2)CC1 [Olaparib] (100 nM)	102	107	96	96.5	103	88.8	94.4	96.8	100	99.2	105	91.3	101	98.5	97.7	91.4	66.4	95.8	93.8	103	103	94.9	96.5	101	110	101	105		88.4	98.9	79.6	110	95	81.9	101	97.4	103
CN1CCN(c2nc(C3=C(c4c[nH]c5ccccc45)C(=O)NC3=O)c3ccccc3n2)CC1 [Sotrastaurin] (100 nM)	102	95.6	97.8	98.2	99.1	100	98.8	96.1	98.7	92.1	99.3	98.9	87.5	97.2	97.5	98.1	112	94.3	102	113	97.8	64.6	102	97.2	76.4	101	99.3	162	96.6	91.4	98.4	93.3	83.6	98	99.6	67	
COc1cc2c(N3CCN(C(=O)Nc4ccc(OC(C)C)cc4)CC3)ncnc2cc1OCCCN1CCCCC1 [Tandutinib] (10 nM)	109	96.3	97.4	98.9	106	100	98.1	99.7	104	100	103	106	97.8	102	101	100	69.2	97.1	103	99	90.3	81.3	84.8	96.8	86.5	90.3	98.8	63.1	101	104		69.4	87.9	95	98	99.9	78.6
CN1CCc2c(c3ccccc3n2Cc2ccc(C(=O)NO)cc2)C1 [Tubastatin A] (100 nM)	98.2	96.3	101	96.8	99.2	97.5	104	95.4	103	96.9	95.3	93.1	102	106	102	98.1	91.8	102	99.9	102	107	92.5	101	99.9	105	101	86.2		109	101	99.3	110	103	105	104	116	93.8
